In ChEMBL document CHEMBL6121016, “Design, Synthesis, and Biological Evaluation of 1,3,4-Thiadiazole Derivatives as Novel Potent Peptide Deformylase Inhibitors for Combating Drug-Resistant Gram-Positive and -Negative Bacteria” (J Med Chem, 2025):
Converted amounts (≈) assume the structure as drawn.

Columns and labels:
Staphylococcus aureus [1] = experiment: Antibacterial activity against methicillin-resistant Staphylococcus aureus ATCC 33591 after 16 to 18 hrs by broth microdilution method; assay type: functional; conditions: time 16-18 hrs
Staphylococcus aureus [2] = experiment: Antibacterial activity against methicillin-resistant Staphylococcus aureus ATCC 43300 after 16 to 18 hrs by broth microdilution method; assay type: functional; conditions: time 16-18 hrs
Staphylococcus aureus [3] = experiment: Antibacterial activity against methicillin-resistant Staphylococcus aureus Bio-090770 after 16 to 18 hrs by broth microdilution method; assay type: functional; conditions: time 16-18 hrs
Staphylococcus aureus [4] = experiment: Antibacterial activity against methicillin-susceptible Staphylococcus aureus ATCC 29213 after 16 to 18 hrs by broth microdilution method; assay type: functional; conditions: time 16-18 hrs
Staphylococcus aureus [5] = experiment: Antibacterial activity against methicillin-susceptible Staphylococcus aureus ATCC 25923 after 16 to 18 hrs by broth microdilution method; assay type: functional; conditions: time 16-18 hrs
Staphylococcus aureus [6] = experiment: Antibacterial activity against methicillin-susceptible Staphylococcus aureus ATCC 13709 after 16 to 18 hrs by broth microdilution method; assay type: functional; conditions: time 16-18 hrs
[7] = test system: Staphylococcus epidermidis; experiment: Antibacterial activity against Staphylococcus epidermidis after 16 to 18 hrs by broth microdilution method; assay type: functional; conditions: time 16-18 hrs
Escherichia coli = experiment: Antibacterial activity against Escherichia coli ATCC 25922 after 16 to 18 hrs by broth microdilution method; assay type: functional; conditions: time 16-18 hrs
Klebsiella pneumoniae = experiment: Antibacterial activity against Klebsiella pneumoniae CICC 21611 after 16 to 18 hrs by broth microdilution method; assay type: functional; conditions: time 16-18 hrs
Acinetobacter baumannii [8] = experiment: Antibacterial activity against Acinetobacter baumannii Bio 34235 after 16 to 18 hrs by broth microdilution method; assay type: functional; conditions: time 16-18 hrs
Acinetobacter baumannii [9] = experiment: Antibacterial activity against drug-resistant Acinetobacter baumannii Bio 53272 after 16 to 18 hrs by broth microdilution method; assay type: functional; conditions: time 16-18 hrs
[10] = Cytotoxicity against human HEK293T cells assessed as cell viability at 3.125 to 100 uM incubated for 24 hrs by MTT assay; assay type: toxicity, cell-based, HEK-293T
[11] = Cytotoxicity against human HeLa cells assessed as cell viability at 3.125 to 100 uM incubated for 24 hrs by MTT assay; assay type: toxicity, cell-based
[12] = Methemoglobin toxicity in human blood at 500 uM incubated for 6 hrs by MetHb content assay; assay type: tissue-based

Row | SMILES | MIC (Staphylococcus aureus [1]) [µg/mL] | MIC (Staphylococcus aureus [2]) [µg/mL] | MIC (Staphylococcus aureus [3]) [µg/mL] | MIC (Staphylococcus aureus [4]) [µg/mL] | MIC (Staphylococcus aureus [5]) [µg/mL] | MIC (Staphylococcus aureus [6]) [µg/mL] | MIC [7] [µg/mL] | MIC (Escherichia coli) [µg/mL] | MIC (Klebsiella pneumoniae) [µg/mL] | MIC (Acinetobacter baumannii [8]) [µg/mL] | MIC (Acinetobacter baumannii [9]) [µg/mL] | IC50 at 24 h [10] [µM] | IC50 at 24 h [11] [µM] | Activity [12]
1 | CCCC[C@H](CN(O)C=O)C(=O)N1CCC[C@H]1c1nnc(C)s1 | 1 (≈ 2.94 µM) | 4 (≈ 11.7 µM) | 4 (≈ 11.7 µM) | 4 (≈ 11.7 µM) | 4 (≈ 11.7 µM) | 4 (≈ 11.7 µM) | 0.25 (≈ 0.734 µM) | 16 (≈ 47 µM) | > 16 | > 16 | 8 (≈ 23.5 µM) |  |  | 
2 | CCCC[C@H](CN(O)C=O)C(=O)N1CCC[C@H]1c1nnc(-c2ccc(Cl)s2)s1 | 0.25 (≈ 0.564 µM) | 0.25 (≈ 0.564 µM) | 1 (≈ 2.26 µM) | 1 (≈ 2.26 µM) | 1 (≈ 2.26 µM) | 1 (≈ 2.26 µM) | 0.5 (≈ 1.13 µM) | 32 (≈ 72.2 µM) | 32 (≈ 72.2 µM) | 32 (≈ 72.2 µM) | 16 (≈ 36.1 µM) | > 100 | > 100 | Toxic
3 | CCCC[C@H](CN(O)C=O)C(=O)N1CCC[C@H]1c1nnc(Cc2cccs2)s1 | 0.5 (≈ 1.18 µM) | 1 (≈ 2.37 µM) | 2 (≈ 4.73 µM) | 2 (≈ 4.73 µM) | 2 (≈ 4.73 µM) | 2 (≈ 4.73 µM) | 2 (≈ 4.73 µM) | > 16 | > 16 | 16 (≈ 37.9 µM) | 16 (≈ 37.9 µM) |  |  | 
4 | CCCCc1ccc(-c2nnc([C@@H]3CCCN3C(=O)[C@H](CCCC)CN(O)C=O)s2)cc1 | 2 (≈ 4.36 µM) | 2 (≈ 4.36 µM) | 4 (≈ 8.72 µM) | 4 (≈ 8.72 µM) | 4 (≈ 8.72 µM) | 4 (≈ 8.72 µM) | 8 (≈ 17.4 µM) | > 16 | > 16 | > 16 | > 16 |  |  | 
5 | CCCC[C@H](CN(O)C=O)C(=O)N1CCC[C@H]1c1nnc(C2CCCC2)s1 | 0.5 (≈ 1.27 µM) | 0.5 (≈ 1.27 µM) | 2 (≈ 5.07 µM) | 2 (≈ 5.07 µM) | 1 (≈ 2.53 µM) | 2 (≈ 5.07 µM) | 1 (≈ 2.53 µM) | > 16 | > 16 | > 16 | 8 (≈ 20.3 µM) |  |  | 
6 | CCCC[C@H](CN(O)C=O)C(=O)N1CCC[C@H]1c1nnc(-c2ccccc2)s1 | 2 (≈ 4.97 µM) | 4 (≈ 9.94 µM) | 8 (≈ 19.9 µM) | 8 (≈ 19.9 µM) | 4 (≈ 9.94 µM) | 2 (≈ 4.97 µM) | 4 (≈ 9.94 µM) | > 16 | > 16 | > 16 | > 16 |  |  | 
7 | CCCC[C@H](CN(O)C=O)C(=O)N1CCC[C@H]1c1nnc(-c2sccc2C)s1 | 0.25 (≈ 0.592 µM) | 0.25 (≈ 0.592 µM) | 0.5 (≈ 1.18 µM) | 0.5 (≈ 1.18 µM) | 0.5 (≈ 1.18 µM) | 0.5 (≈ 1.18 µM) | 0.5 (≈ 1.18 µM) | 64 (≈ 151 µM) | 16 (≈ 37.9 µM) | 32 (≈ 75.7 µM) | 16 (≈ 37.9 µM) |  |  | 
8 | CCCC[C@H](CN(O)C=O)C(=O)N1CCC[C@H]1c1nnc(-c2ccc(C#N)cc2F)s1 | 0.125 (≈ 0.281 µM) | 0.125 (≈ 0.281 µM) | 0.5 (≈ 1.12 µM) | 0.25 (≈ 0.561 µM) | 0.125 (≈ 0.281 µM) | 0.125 (≈ 0.281 µM) | 2 (≈ 4.49 µM) | 8 (≈ 18 µM) | > 16 | > 16 | 8 (≈ 18 µM) |  |  | 
9 | CCCC[C@H](CN(O)C=O)C(=O)N1CCC[C@H]1c1nnc(C2CCOC2)s1 (some centres undefined) | 1 (≈ 2.52 µM) | 1 (≈ 2.52 µM) | 4 (≈ 10.1 µM) | 4 (≈ 10.1 µM) | 4 (≈ 10.1 µM) | 4 (≈ 10.1 µM) | 4 (≈ 10.1 µM) | > 16 | > 16 | > 16 | > 16 |  |  | 
10 | CCCC[C@H](CN(O)C=O)C(=O)N1CCC[C@H]1c1nnc(-c2ccns2)s1 | 0.25 (≈ 0.61 µM) | 0.5 (≈ 1.22 µM) | 2 (≈ 4.88 µM) | 1 (≈ 2.44 µM) | 1 (≈ 2.44 µM) | 1 (≈ 2.44 µM) | 0.5 (≈ 1.22 µM) | 64 (≈ 156 µM) | 16 (≈ 39.1 µM) | 32 (≈ 78.1 µM) | 16 (≈ 39.1 µM) |  |  | 
11 | CCCC[C@H](CN(O)C=O)C(=O)N1CCC[C@H]1c1nnc(-c2cc(C)nn2C)s1 | 0.25 (≈ 0.594 µM) | 0.25 (≈ 0.594 µM) | 1 (≈ 2.38 µM) | 1 (≈ 2.38 µM) | 1 (≈ 2.38 µM) | 1 (≈ 2.38 µM) | 1 (≈ 2.38 µM) | 64 (≈ 152 µM) | 32 (≈ 76.1 µM) | 32 (≈ 76.1 µM) | 16 (≈ 38 µM) |  |  | 
